Results from patent US11332440B2, “4-oxo-alkylated tetramic acid compound, and preparation method thereof” (priority 2017, dated 2022).

Experiment: Pharmacokinetic evaluation, plasma and brain concentrations
Assay type: in vivo, ICR mice
From the text: Distribution of a medicament in the body is one of the important indicators to determine the dose and efficacy of the medicament. Thus, excellent candidate compounds should have good pharmacokinetic characteristics. In addition, since the compound of the present invention is intended to be used for the treatment of Alzheimer's disease, which is a disease of the central nervous system, the distribution pattern of the compound in the brain and the blood is also one of the subjects to be investigated. In this experiment, compound 50561 was administered to mice […] or by gavage, and the concentrations of the compound in blood and brain were measured at specific time points to determine the pharmacokinetic parameters.
Forty-eight male ICR mice purchased from Shanghai Sippr-BK Lab. Animal Co. Ltd were used in this experiment. The oral group was fasted for 10-14 hours before administration, and feeding was restored 4 hours after administration. Samples were collected from the intravenous administration group 0.083 h, 0.25 h, 0.5 h, 1 h, 2 h, 4 h, 8 h, and 24 h after administration, respectively; while for the oral administration group, about 0.5 mL of blood was collected from the heart 0.25 h, 0.5 h, 1 h, 2 h, 4 h, 6 h, 8 h, and 24 h after administration, respectively. Heparin sodium was used for anticoagulation. Blood samples were collected and placed on ice, and plasma was separated by centrifugation (centrifugation conditions: 8000 rpm, 6 minutes, 4C). The collected plasma was stored at −80° C. before analysis. After collecting plasma samples, brain tissues were collected, washed with normal saline, water-absorbed by filter paper, weighed immediately, and then placed in labeled tubes (one tube for one brain tissue). The samples to be tested were temporarily placed on ice before being stored in a −80° C. refrigerator.
The analysis methods of biological samples and the analysis of all samples were done by Medicilon Pharmaceutical Technology (Shanghai) Co., Ltd. The intraday accuracy evaluation of the quality control samples was carried out while analyzing the samples, and the accuracy of over 66.7% of the quality control samples was required to be between 80-120%.
When calculating the pharmacokinetic parameters, the BLQ before Cmax (including “No peak”) was calculated as 0; BLQ occurring after Cmax (including “No peak”) was not involved in the calculation. WinNonlin Professional V 5.2 (Pharsight, USA) was adopted to calculate the following pharmacokinetic parameters: AUC(0-t), AUC(0-∞), T1/2, MRT(0-∞), Cmax, and Tmax. The tissue/plasma ratio was to be calculated by the following formula based on the blood concentration data at different time points: Tissue/plasma ratio (mL/g)=tissue blood concentration/plasma blood concentration.

## O=C1C=C(OCc2ccc(F)cc2)[C@H](Cc2ccccc2)N1 [Compound 50561]
IV 1 mg/kg, 0.083 hr, G1-1
  Brain/plasma ratio: 2.604 mL/G
IV 1 mg/kg, 0.083 hr, G1-2
  Brain/plasma ratio: 2.645 mL/G
IV 1 mg/kg, 0.083 hr, G1-3
  Brain/plasma ratio: 2.249 mL/G
IV 1 mg/kg, 0.083 hr, Mean
  Brain/plasma ratio: 2.499 mL/G
IV 1 mg/kg, 0.25 hr, G1-1
  Brain/plasma ratio: 2.451 mL/G
IV 1 mg/kg, 0.25 hr, G1-2
  Brain/plasma ratio: 2.415 mL/G
IV 1 mg/kg, 0.25 hr, G1-3
  Brain/plasma ratio: 2.159 mL/G
IV 1 mg/kg, 0.25 hr, Mean
  Brain/plasma ratio: 2.342 mL/G
IV 1 mg/kg, 0.5 hr, G1-1
  Brain/plasma ratio: 2.540 mL/G
IV 1 mg/kg, 0.5 hr, G1-2
  Brain/plasma ratio: 2.564 mL/G
IV 1 mg/kg, 0.5 hr, G1-3
  Brain/plasma ratio: 2.361 mL/G
IV 1 mg/kg, 0.5 hr, Mean
  Brain/plasma ratio: 2.488 mL/G
IV 1 mg/kg, 1 hr, G1-1
  Brain/plasma ratio: 2.330 mL/G
IV 1 mg/kg, 1 hr, G1-2
  Brain/plasma ratio: 3.941 mL/G
IV 1 mg/kg, 1 hr, G1-3
  Brain/plasma ratio: 2.751 mL/G
IV 1 mg/kg, 1 hr, Mean
  Brain/plasma ratio: 3.007 mL/G
IV 1 mg/kg, 2 hr, G1-1
  Blood concentration: BLQ
  Brain tissue concentration: BLQ
IV 1 mg/kg, 2 hr, G1-2
  Blood concentration: BLQ
  Brain tissue concentration: BLQ
IV 1 mg/kg, 2 hr, G1-3
  Blood concentration: BLQ
  Brain tissue concentration: BLQ
IV 1 mg/kg, 4 hr, G1-1
  Blood concentration: BLQ
  Brain tissue concentration: BLQ
IV 1 mg/kg, 4 hr, G1-2
  Blood concentration: BLQ
  Brain tissue concentration: BLQ
IV 1 mg/kg, 4 hr, G1-3
  Blood concentration: BLQ
  Brain tissue concentration: BLQ
IV 1 mg/kg, 8 hr, G1-1
  Blood concentration: BLQ
  Brain tissue concentration: BLQ
IV 1 mg/kg, 8 hr, G1-2
  Blood concentration: BLQ
  Brain tissue concentration: BLQ
IV 1 mg/kg, 8 hr, G1-3
  Blood concentration: BLQ
  Brain tissue concentration: BLQ
IV 1 mg/kg, 24 hr, G1-1
  Blood concentration: BLQ
  Brain tissue concentration: BLQ
IV 1 mg/kg, 24 hr, G1-2
  Blood concentration: BLQ
  Brain tissue concentration: BLQ
IV 1 mg/kg, 24 hr, G1-3
  Blood concentration: BLQ
  Brain tissue concentration: BLQ
PO 10 mg/kg, 0.25 hr, G2-1
  Brain/plasma ratio: 1.948 mL/G
PO 10 mg/kg, 0.25 hr, G2-2
  Brain/plasma ratio: 1.590 mL/G
PO 10 mg/kg, 0.25 hr, G2-3
  Brain/plasma ratio: 2.093 mL/G
PO 10 mg/kg, 0.25 hr, Mean
  Brain/plasma ratio: 1.877 mL/G
PO 10 mg/kg, 0.5 hr, G2-1
  Brain/plasma ratio: 2.435 mL/G
PO 10 mg/kg, 0.5 hr, G2-2
  Brain/plasma ratio: 2.027 mL/G
PO 10 mg/kg, 0.5 hr, G2-3
  Brain/plasma ratio: 1.980 mL/G
PO 10 mg/kg, 0.5 hr, Mean
  Brain/plasma ratio: 2.147 mL/G
PO 10 mg/kg, 1 hr, G2-1
  Brain/plasma ratio: 2.485 mL/G
PO 10 mg/kg, 1 hr, G2-2
  Brain/plasma ratio: 2.152 mL/G
PO 10 mg/kg, 1 hr, G2-3
  Brain/plasma ratio: 2.158 mL/G
PO 10 mg/kg, 1 hr, Mean
  Brain/plasma ratio: 2.265 mL/G
PO 10 mg/kg, 2 hr, G2-1
  Brain/plasma ratio: 2.163 mL/G
PO 10 mg/kg, 2 hr, G2-2
  Brain/plasma ratio: 2.454 mL/G
PO 10 mg/kg, 2 hr, G2-3
  Brain/plasma ratio: 2.372 mL/G
PO 10 mg/kg, 2 hr, Mean
  Brain/plasma ratio: 2.329 mL/G
PO 10 mg/kg, 4 hr, G2-1
  Brain/plasma ratio: 2.373 mL/G
PO 10 mg/kg, 4 hr, G2-2
  Brain/plasma ratio: 2.428 mL/G
PO 10 mg/kg, 4 hr, G2-3
  Brain/plasma ratio: 1.355 mL/G
PO 10 mg/kg, 4 hr, Mean
  Brain/plasma ratio: 2.052 mL/G
PO 10 mg/kg, 6 hr, G2-1
  Brain/plasma ratio: 1.839 mL/G
PO 10 mg/kg, 6 hr, G2-2
  Brain/plasma ratio: 2.764 mL/G
PO 10 mg/kg, 6 hr, G2-3
  Brain/plasma ratio: 2.929 mL/G
PO 10 mg/kg, 6 hr, Mean
  Brain/plasma ratio: 2.511 mL/G
PO 10 mg/kg, 8 hr, G2-1
  Brain/plasma ratio: 1.575 mL/G
PO 10 mg/kg, 8 hr, G2-2
  Brain/plasma ratio: 2.443 mL/G
PO 10 mg/kg, 8 hr, G2-3
  Brain tissue concentration: BLQ
PO 10 mg/kg, 8 hr, Mean
  Brain/plasma ratio: 2.009 mL/G
PO 10 mg/kg, 24 hr, G2-1
  Blood concentration: BLQ
  Brain tissue concentration: BLQ
PO 10 mg/kg, 24 hr, G2-2
  Blood concentration: BLQ
  Brain tissue concentration: BLQ
PO 10 mg/kg, 24 hr, G2-3
  Blood concentration: BLQ
  Brain tissue concentration: BLQ
After intravenous injection and oral administration
  blood-brain barrier permeability (content in brain tissue versus blood): good blood-brain barrier permeability
male, ICR, mouse, brain, IV 1 mg/kg, 0.083 hr, G1-3, read-out: Brain tissue concentration
  concentration at 0.083 h: 977 ng/g
